pIC50: −log10 of the molar value.
Tested on: KRAS-mutant PDC multicell tumor spheroid viability
Test: Anticancer human tumor 521955-158-R2-J5-PDC patient-derived pancreatic carcinoma cell line growth inhibition [KRAS2]
Conditions: for viability, T/C: stronger effect = lower value
Summary of the method: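 Combination screen of spheroid viability in tumor-cell co-cultures with endothelial (HUVEC) and mesenchymal stem cell stroma. Each agent was tested in half-log dilutions, topping at clinical Cmax or at 10 microM without a known Cmax.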

[1] = curve of first compound, second compound 0.1 µM
[2] = curve of first compound, second compound 0.316 µM
[3] = curve of first compound, second compound 1 µM
[4] = curve of first compound, second compound 3.16 µM
[5] = second compound 0.1 µM, first compound 0.0316 µM
[6] = second compound 0.1 µM, first compound 0.1 µM
[7] = second compound 0.1 µM, first compound 0.316 µM
[8] = second compound 0.1 µM, first compound 1 µM
[9] = second compound 0.1 µM, first compound 3.16 µM
[10] = second compound 0.1 µM, first compound 10 µM
[11] = second compound 0.316 µM, first compound 0.0316 µM
[12] = second compound 0.316 µM, first compound 0.1 µM
[13] = second compound 0.316 µM, first compound 0.316 µM
[14] = second compound 0.316 µM, first compound 1 µM
[15] = second compound 0.316 µM, first compound 3.16 µM
[16] = second compound 0.316 µM, first compound 10 µM
[17] = second compound 1 µM, first compound 0.0316 µM
[18] = second compound 1 µM, first compound 0.1 µM
[19] = second compound 1 µM, first compound 0.316 µM
[20] = second compound 1 µM, first compound 1 µM
[21] = second compound 1 µM, first compound 3.16 µM
[22] = second compound 1 µM, first compound 10 µM
[23] = second compound 3.16 µM, first compound 0.0316 µM
[24] = second compound 3.16 µM, first compound 0.1 µM
[25] = second compound 3.16 µM, first compound 0.316 µM
[26] = second compound 3.16 µM, first compound 1 µM
[27] = second compound 3.16 µM, first compound 3.16 µM
[28] = second compound 3.16 µM, first compound 10 µM
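Also: viability read after seven days of drug exposure.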

Work on `COc1cc2nccc(Oc3ccc(NC(=O)C4(C(=O)Nc5ccc(F)cc5)CC4)cc3)c2cc1OC` + C=CC(=O)N1CCN(c2nc(=O)n(-c3c(C)ccnc3C(C)C)c3nc(-c4c(O)cccc4F)c(F)cc23)C(C)C1 yielded a pIC50 [1] of 5.18, a pIC50 [2] of 5.24 and a pIC50 [3] of 5.40. For the same molecule, the pIC50 [4] was 5.60, the pIC50 (curve of first compound, second compound 10 µM) was 5.91 and the viability, T/C [5] was 114%. It also gave a viability, T/C [6] of 122%, a viability, T/C [7] of 113% and a viability, T/C [8] of 124%. It also gave a viability, T/C [9] of 78.4%, a viability, T/C [10] of 33.5% and a viability, T/C [11] of 107%. The viability, T/C [12] was 111%, the viability, T/C [13] was 117% and the viability, T/C [14] was 108%. It also gave a viability, T/C [15] of 66.8%, a viability, T/C [16] of 34.7% and a viability, T/C [17] of 109%. For the same molecule, the viability, T/C [18] was 119%, the viability, T/C [19] was 114% and the viability, T/C [20] was 112%. The viability, T/C [21] was 54.2%, the viability, T/C [22] was 32.9% and the viability, T/C [23] was 83.7%. For the same molecule, the viability, T/C [24] was 109%, the viability, T/C [25] was 94.4% and the viability, T/C [26] was 75.4%. The viability, T/C [27] was 44.2%, the viability, T/C [28] was 20.9% and the viability, T/C (second compound 10 µM, first compound 0.0316 µM) was 55.2%. The viability, T/C (second compound 10 µM, first compound 0.1 µM) was 64.1%, the viability, T/C (second compound 10 µM, first compound 0.316 µM) was 58.7% and the viability, T/C (second compound 10 µM, first compound 1 µM) was 53.9%. It also gave a viability, T/C (second compound 10 µM, first compound 3.16 µM) of 32.6% and a viability, T/C (second compound 10 µM, first compound 10 µM) of 10.4%.

In the case of `CN(C)C/C=C/C(=O)Nc1cc2c(Nc3ccc(F)c(Cl)c3)ncnc2cc1O[C@H]1CCOC1`, the viability, T/C (compound 0.000316 µM) was 105% [middle of 5 runs], the viability, T/C (compound 0.001 µM) was 98.6% [middle of 5 runs] and the viability, T/C (compound 0.00316 µM) was 96.5% [middle of 5 runs]. For the same molecule, the viability, T/C (compound 0.01 µM) was 92.4% [middle of 5 runs], the viability, T/C (compound 0.0316 µM) was 87.8% [middle of 5 runs] and the pIC50 (curve of compound) was < 7.00.

For `COc1cc2nccc(Oc3ccc(NC(=O)C4(C(=O)Nc5ccc(F)cc5)CC4)cc3)c2cc1OC` + C=CC(=O)N1CCN(c2nc(OCC3CCCN3C)nc3c2CCN(c2cccc4cccc(C)c24)C3)CC1CC#N, the pIC50 (curve of first compound, second compound 0.0316 µM) was 5.09, the pIC50 [1] was 5.12 and the pIC50 [2] was 5.18. For the same molecule, the pIC50 [3] was 5.57, the pIC50 [4] was > 7.50 and the viability, T/C (second compound 0.0316 µM, first compound 0.0316 µM) was 111%. The viability, T/C (second compound 0.0316 µM, first compound 0.1 µM) was 112%, the viability, T/C (second compound 0.0316 µM, first compound 0.316 µM) was 126% and the viability, T/C (second compound 0.0316 µM, first compound 1 µM) was 124%. For the same molecule, the viability, T/C (second compound 0.0316 µM, first compound 3.16 µM) was 94.6%, the viability, T/C (second compound 0.0316 µM, first compound 10 µM) was 40.7% and the viability, T/C [5] was 105%. For the same molecule, the viability, T/C [6] was 108%, the viability, T/C [7] was 118% and the viability, T/C [8] was 116%. For the same molecule, the viability, T/C [9] was 94.1%, the viability, T/C [10] was 36.7% and the viability, T/C [11] was 89.9%. It also gave a viability, T/C [12] of 113%, a viability, T/C [13] of 108% and a viability, T/C [14] of 97.9%. It also gave a viability, T/C [15] of 82.7%, a viability, T/C [16] of 31.7% and a viability, T/C [17] of 86.2%. The viability, T/C [18] was 95%, the viability, T/C [19] was 89.7% and the viability, T/C [20] was 81.9%. The viability, T/C [21] was 44.7%, the viability, T/C [22] was 14.9% and the viability, T/C [23] was 19.4%. For the same molecule, the viability, T/C [24] was 26.7%, the viability, T/C [25] was 17.7% and the viability, T/C [26] was 4.13%. It also gave a viability, T/C [27] of 0.96% and a viability, T/C [28] of 0.26%.

From PubChem BioAssay AID1963871 (Molecular Pharmacology Branch, DTP, NCI, 2024)
